Data taken from ChEMBL document CHEMBL1201862, “PubChem BioAssay data set” (2004).
Each block holds one compound with its values, some of them ahead of it. Activity calls are given as the source filed them.

What was measured:
Format in all cases: functional
BJ = assay: BJ-TERT fibroblast viability loss – cell-based, RAS-independent, luminescence, dose response (AID 1933); conditions: Homo sapiens
[1] = biological target: T1, Serine/threonine-protein phosphatase (Candida dubliniensis (strain CD36 / CBS 7987 / NCPF 3949 / NRRLY-17841) (Yeast), UniProt B9W6M3); assay: Fluorescence Cell-Based Secondary Assay to Identify Inhibitors of Calcineurin. [Related pubchem assays (depositor defined):AID1979, AID2007]
T1 sequence (B9W6M3 whole entry): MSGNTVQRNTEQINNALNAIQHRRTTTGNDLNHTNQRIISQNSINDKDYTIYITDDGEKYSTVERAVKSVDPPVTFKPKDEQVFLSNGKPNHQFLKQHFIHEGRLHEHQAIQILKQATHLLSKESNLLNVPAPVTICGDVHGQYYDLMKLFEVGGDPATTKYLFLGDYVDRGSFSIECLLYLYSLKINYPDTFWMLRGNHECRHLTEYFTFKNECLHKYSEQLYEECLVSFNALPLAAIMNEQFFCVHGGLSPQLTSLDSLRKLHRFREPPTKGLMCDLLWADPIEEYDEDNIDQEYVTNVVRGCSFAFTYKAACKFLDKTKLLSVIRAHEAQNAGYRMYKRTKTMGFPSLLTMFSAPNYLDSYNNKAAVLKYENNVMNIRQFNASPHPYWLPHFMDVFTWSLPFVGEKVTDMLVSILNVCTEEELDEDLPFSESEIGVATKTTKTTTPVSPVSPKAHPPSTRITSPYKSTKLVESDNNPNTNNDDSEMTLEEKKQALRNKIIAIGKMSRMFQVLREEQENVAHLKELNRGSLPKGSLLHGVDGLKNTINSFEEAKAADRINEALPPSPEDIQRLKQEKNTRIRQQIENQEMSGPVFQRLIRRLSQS

[2] = DRD fibroblast viability loss – cell-based, non-viral oncogenic, luminescence, dose response (AID 1934); conditions: Homo sapiens
[3] = biological target: Testis-specific serine/threonine-protein kinase 2 (Homo sapiens, UniProt Q96PF2);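 note: part of the Navigating the Kinome panel, target entry STK22B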
[4] = biological target: Non-receptor tyrosine-protein kinase TYK2 (Homo sapiens, UniProt P29597)
[5] = biological target: Serine/threonine-protein kinase 3 (Homo sapiens, UniProt Q13188);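 note: measured as one member of a kinome-wide kinase panel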
Sequence of Serine/threonine-protein kinase 3 (Q13188 whole entry, canonical isoform): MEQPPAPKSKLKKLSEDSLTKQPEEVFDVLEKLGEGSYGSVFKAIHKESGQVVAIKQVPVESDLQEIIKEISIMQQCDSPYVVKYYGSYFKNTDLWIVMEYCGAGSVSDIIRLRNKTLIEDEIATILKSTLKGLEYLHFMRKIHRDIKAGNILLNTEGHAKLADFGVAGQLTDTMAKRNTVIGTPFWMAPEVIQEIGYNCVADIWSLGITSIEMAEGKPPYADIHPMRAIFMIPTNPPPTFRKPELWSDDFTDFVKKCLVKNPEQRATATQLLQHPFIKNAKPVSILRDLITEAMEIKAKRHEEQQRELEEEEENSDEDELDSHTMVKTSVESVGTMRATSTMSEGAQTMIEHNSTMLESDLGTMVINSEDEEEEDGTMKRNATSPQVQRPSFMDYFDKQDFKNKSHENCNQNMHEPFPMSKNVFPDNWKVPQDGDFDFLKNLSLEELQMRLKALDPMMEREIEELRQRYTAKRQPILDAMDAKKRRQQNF

[6] = biological target: Casein kinase I isoform alpha (Homo sapiens, UniProt P48729)
Sequence of Casein kinase I isoform alpha (P48729 whole entry, canonical isoform): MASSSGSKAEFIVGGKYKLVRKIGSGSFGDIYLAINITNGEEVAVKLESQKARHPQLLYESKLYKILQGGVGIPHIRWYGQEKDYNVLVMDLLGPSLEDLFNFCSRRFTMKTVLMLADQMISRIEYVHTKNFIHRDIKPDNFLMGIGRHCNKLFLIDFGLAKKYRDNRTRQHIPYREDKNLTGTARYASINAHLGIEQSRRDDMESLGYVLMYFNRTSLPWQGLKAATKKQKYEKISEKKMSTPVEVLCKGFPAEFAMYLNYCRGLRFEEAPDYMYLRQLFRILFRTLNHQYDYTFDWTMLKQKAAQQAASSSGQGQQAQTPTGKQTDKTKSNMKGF

[7] = biological target: Ribosomal protein S6 kinase alpha-5 (Homo sapiens, UniProt O75582)
[8] = biological target: Casein kinase I isoform delta (Homo sapiens, UniProt P48730);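 note: measured as one member (CSNK1D) of a kinome panel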
Sequence of Casein kinase I isoform delta (P48730 whole entry, canonical isoform): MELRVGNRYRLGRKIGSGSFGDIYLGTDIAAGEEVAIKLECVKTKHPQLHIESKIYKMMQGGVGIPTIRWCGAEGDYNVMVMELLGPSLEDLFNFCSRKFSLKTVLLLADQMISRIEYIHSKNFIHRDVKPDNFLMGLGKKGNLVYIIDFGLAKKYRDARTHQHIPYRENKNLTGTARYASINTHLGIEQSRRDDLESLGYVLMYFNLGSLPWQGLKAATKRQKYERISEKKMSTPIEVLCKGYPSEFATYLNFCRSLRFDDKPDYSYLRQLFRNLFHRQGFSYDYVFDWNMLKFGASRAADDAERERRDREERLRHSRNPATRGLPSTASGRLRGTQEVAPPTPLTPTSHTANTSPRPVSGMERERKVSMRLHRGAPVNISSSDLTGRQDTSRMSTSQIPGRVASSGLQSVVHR

[9] = biological target: Tyrosine-protein kinase Fyn (Homo sapiens, UniProt P06241)
Sequence of Tyrosine-protein kinase Fyn (P06241 whole entry): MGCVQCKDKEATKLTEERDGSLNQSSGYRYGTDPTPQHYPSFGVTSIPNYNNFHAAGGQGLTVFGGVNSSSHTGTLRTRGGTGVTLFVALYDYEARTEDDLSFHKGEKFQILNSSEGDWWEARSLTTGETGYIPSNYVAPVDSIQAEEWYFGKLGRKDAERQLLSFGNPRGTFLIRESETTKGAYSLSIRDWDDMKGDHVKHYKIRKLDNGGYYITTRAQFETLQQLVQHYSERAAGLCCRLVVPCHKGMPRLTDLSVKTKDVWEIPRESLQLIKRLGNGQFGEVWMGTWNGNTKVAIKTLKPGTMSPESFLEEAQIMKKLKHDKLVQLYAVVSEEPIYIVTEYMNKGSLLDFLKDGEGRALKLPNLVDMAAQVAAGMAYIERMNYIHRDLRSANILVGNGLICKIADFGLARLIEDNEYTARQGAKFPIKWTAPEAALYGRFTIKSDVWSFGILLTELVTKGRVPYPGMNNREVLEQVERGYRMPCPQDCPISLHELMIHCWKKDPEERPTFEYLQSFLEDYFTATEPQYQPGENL

[10] = biological target: RAC-gamma serine/threonine-protein kinase (Homo sapiens, UniProt Q9Y243)
[11] = biological target: Glycogen synthase kinase-3 alpha (Homo sapiens, UniProt P49840);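 note: GSK3A result taken from a broad kinome-wide kinase panel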
Sequence of Glycogen synthase kinase-3 alpha (P49840 whole entry): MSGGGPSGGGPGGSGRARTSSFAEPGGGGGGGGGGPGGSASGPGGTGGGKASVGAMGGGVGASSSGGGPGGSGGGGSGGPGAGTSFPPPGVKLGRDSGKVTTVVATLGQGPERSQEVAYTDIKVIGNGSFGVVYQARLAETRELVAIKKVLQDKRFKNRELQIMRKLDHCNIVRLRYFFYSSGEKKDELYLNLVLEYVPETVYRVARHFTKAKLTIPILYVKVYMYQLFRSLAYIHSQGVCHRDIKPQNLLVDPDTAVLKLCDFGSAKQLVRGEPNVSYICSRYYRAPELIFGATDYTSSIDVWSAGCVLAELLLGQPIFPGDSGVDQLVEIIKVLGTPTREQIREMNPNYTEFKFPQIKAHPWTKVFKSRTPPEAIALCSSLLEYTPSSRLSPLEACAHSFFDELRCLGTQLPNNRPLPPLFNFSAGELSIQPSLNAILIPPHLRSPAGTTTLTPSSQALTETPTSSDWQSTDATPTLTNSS

[12] = biological target: Serine/threonine-protein kinase D2 (Homo sapiens, UniProt Q9BZL6);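 note: measured against PRKD2 as one member of a kinome-wide kinase profiling panel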
[13] = biological target: Protein kinase C delta type (Homo sapiens, UniProt Q05655)
[14] = biological target: Macrophage colony-stimulating factor 1 receptor (Homo sapiens, UniProt P07333);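 note: value comes from the Navigating the Kinome screening panel, CSF1R member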
[15] = biological target: Mitogen-activated protein kinase kinase kinase 20 (Homo sapiens, UniProt Q9NYL2)
[16] = biological target: Protein kinase C zeta type (Homo sapiens, UniProt Q05513);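 note: measured as one member of a broad kinase profiling panel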
Sequence of Protein kinase C zeta type (Q05513 whole entry): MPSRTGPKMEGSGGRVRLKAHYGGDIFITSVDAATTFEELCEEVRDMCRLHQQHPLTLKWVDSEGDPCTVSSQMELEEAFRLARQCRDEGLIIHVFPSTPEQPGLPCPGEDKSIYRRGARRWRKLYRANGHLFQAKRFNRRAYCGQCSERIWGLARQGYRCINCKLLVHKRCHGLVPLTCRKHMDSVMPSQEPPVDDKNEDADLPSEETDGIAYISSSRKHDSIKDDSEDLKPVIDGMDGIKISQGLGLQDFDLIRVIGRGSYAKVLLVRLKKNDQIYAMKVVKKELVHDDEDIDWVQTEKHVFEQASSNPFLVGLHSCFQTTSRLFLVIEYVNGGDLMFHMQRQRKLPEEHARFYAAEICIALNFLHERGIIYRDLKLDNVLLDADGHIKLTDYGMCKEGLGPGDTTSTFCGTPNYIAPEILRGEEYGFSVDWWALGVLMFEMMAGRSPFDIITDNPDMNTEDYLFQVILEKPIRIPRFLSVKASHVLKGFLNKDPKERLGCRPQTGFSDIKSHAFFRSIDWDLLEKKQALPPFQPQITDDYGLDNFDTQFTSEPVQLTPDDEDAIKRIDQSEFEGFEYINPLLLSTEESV

[17] = biological target: Fibroblast growth factor receptor 1 (Homo sapiens, UniProt P11362)
[18] = biological target: Tyrosine-protein kinase Lck (Homo sapiens, UniProt P06239);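 note: lck was assayed as one member of a kinase panel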
[19] = biological target: Protein kinase C iota type (Homo sapiens, UniProt P41743);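 note: measured within a kinome-wide kinase panel, PRKCI as panel member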
[20] = biological target: RAC-alpha serine/threonine-protein kinase (Homo sapiens, UniProt P31749);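 note: AKT1 affinity measured as one member of a kinome-wide kinase profiling panel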
[21] = biological target: Ribosomal protein S6 kinase beta-1 (Homo sapiens, UniProt P23443);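 note: measured as one member of a kinome-wide profiling panel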
SRSF protein kinase 1 = SRSF protein kinase 1 (Homo sapiens, UniProt Q96SB4);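 note: measured as one member of a kinome-wide kinase profiling panel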
[22] = biological target: Tyrosine-protein kinase SYK (Homo sapiens, UniProt P43405)
[23] = biological target: Calcium/calmodulin-dependent protein kinase type II subunit beta (Homo sapiens, UniProt Q13554)
[24] = biological target: MAP/microtubule affinity-regulating kinase 3 (Homo sapiens, UniProt P27448);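 note: MARK3 affinity measured as one member of a kinome panel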
[25] = biological target: Calcium/calmodulin-dependent protein kinase type II subunit gamma (Homo sapiens, UniProt Q13555)
[26] = biological target: Vascular endothelial growth factor receptor 2 (Homo sapiens, UniProt P35968)
[27] = biological target: Serine/threonine-protein kinase pim-1 (Homo sapiens, UniProt P11309)
Sequence of Serine/threonine-protein kinase pim-1 (P11309 whole entry): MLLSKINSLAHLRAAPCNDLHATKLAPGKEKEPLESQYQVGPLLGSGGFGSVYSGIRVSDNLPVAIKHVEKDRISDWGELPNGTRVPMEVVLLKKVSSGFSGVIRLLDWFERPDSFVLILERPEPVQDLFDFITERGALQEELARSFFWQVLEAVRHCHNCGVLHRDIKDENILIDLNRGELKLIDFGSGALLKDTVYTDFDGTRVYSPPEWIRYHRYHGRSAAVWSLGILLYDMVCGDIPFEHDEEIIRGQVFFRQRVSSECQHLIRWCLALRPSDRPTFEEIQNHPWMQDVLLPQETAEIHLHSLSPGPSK

[28] = biological target: Tyrosine-protein kinase JAK2 (Homo sapiens, UniProt O60674);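 note: JAK2 tested as one member of a kinase panel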
Sequence of Tyrosine-protein kinase JAK2 (O60674 whole entry): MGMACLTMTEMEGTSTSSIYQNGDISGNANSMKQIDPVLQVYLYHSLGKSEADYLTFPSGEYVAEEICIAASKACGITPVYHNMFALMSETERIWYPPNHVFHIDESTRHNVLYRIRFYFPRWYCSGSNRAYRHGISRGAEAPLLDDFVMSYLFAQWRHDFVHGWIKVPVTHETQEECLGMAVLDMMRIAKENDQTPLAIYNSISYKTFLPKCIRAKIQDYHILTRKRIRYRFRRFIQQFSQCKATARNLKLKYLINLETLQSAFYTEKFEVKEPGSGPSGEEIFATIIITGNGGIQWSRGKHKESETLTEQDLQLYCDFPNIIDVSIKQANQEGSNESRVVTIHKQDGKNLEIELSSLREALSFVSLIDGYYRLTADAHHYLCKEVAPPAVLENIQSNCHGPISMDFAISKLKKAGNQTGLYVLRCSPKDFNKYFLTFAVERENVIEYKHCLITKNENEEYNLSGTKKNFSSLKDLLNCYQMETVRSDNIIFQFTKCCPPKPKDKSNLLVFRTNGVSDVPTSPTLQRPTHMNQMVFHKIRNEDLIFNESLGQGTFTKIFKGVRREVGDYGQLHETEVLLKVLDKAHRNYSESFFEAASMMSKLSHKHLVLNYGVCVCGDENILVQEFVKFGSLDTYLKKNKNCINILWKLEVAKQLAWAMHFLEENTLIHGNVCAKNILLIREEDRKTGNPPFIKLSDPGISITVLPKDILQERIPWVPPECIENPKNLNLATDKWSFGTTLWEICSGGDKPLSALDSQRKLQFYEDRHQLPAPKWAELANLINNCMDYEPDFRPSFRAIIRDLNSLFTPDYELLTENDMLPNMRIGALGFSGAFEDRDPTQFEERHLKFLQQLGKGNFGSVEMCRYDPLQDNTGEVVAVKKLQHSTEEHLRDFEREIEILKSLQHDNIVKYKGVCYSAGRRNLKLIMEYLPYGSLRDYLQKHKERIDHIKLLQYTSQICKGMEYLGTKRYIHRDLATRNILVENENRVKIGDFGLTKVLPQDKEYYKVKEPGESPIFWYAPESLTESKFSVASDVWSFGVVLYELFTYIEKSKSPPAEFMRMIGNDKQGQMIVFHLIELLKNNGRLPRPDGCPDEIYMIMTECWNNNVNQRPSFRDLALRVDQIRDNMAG

[29] = biological target: Serine/threonine-protein kinase Nek4 (Homo sapiens, UniProt P51957)
[30] = biological target: cGMP-dependent protein kinase 1 (Homo sapiens, UniProt Q13976);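 note: value from a kinome panel screen with PRKG1 as the panel member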
Sequence of cGMP-dependent protein kinase 1 (Q13976 whole entry): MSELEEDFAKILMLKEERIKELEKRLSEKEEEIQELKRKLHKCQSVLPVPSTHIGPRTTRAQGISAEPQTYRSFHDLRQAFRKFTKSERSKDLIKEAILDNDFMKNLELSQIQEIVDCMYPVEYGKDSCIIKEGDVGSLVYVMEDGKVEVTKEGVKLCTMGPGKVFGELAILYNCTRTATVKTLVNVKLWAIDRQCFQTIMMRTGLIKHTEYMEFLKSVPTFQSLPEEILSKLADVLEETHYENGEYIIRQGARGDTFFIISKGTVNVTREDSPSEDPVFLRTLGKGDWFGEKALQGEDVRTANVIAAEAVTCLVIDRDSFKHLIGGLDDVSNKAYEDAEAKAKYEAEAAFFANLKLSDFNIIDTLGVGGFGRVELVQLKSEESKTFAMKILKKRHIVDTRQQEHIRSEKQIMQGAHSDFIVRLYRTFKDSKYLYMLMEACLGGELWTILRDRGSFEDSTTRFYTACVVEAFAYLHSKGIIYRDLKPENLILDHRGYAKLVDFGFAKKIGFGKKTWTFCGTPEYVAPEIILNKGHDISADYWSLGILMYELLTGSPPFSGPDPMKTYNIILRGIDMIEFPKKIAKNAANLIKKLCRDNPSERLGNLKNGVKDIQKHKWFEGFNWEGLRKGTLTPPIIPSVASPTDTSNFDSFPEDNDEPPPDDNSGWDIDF

[31] = biological target: Tyrosine-protein kinase Blk (Homo sapiens, UniProt P51451);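 note: obtained as one member of a kinome-wide kinase assay panel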
[32] = biological target: Megakaryocyte-associated tyrosine-protein kinase (Homo sapiens, UniProt P42679);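 note: affinity measured as one member of a kinase panel (Navigating the Kinome) against MATK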
[33] = biological target: Serine/threonine-protein kinase Chk1 (Homo sapiens, UniProt O14757);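 note: measured as one member of a kinome-wide kinase profiling panel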
[34] = biological target: Receptor tyrosine-protein kinase erbB-2 (Homo sapiens, UniProt P04626); assay: Navigating the Kinome. Panel member name: ERBB2
[35] = biological target: Tyrosine-protein kinase BTK (Homo sapiens, UniProt Q06187)
[36] = biological target: Serine/threonine-protein kinase PLK1 (Homo sapiens, UniProt P53350);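 note: PLK1 measured as one member of a kinome-wide profiling panel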

Structure (SMILES): COc1ccc(-c2nnc(NC(=O)c3ccc(F)cc3)o2)cc1
EC50 (BJ): 61700 nM (active)
EC50 [1]: > 285000 nM (inactive)
EC50 [2]: 38100 nM (active)

Ki [3]: > 1580 nM (inactive)
Ki [4]: > 2000 nM (inactive)
Ki [5]: > 7940 nM (inactive)
Ki [6]: > 6310 nM (inactive)
Ki [7]: 63.1 nM (active)
Ki [8]: > 7940 nM (inactive)
Ki [9]: > 794 nM (inactive)
Ki [10]: 2000 nM (active)
Ki [11]: 50.1 nM (active)
Ki [12]: 2000 nM (active)
Ki [13]: 5.01 nM (active)
Ki [14]: > 2510 nM (inactive)
Ki [15]: > 7940 nM (inactive)
Ki [16]: 25.1 nM (active)
Ki [17]: > 5010 nM (inactive)
Ki [18]: 2510 nM (active)
Ki [19]: 31.6 nM (active)
Ki [20]: 501 nM (active)
Ki [21]: 3.16 nM (active)
Ki (SRSF protein kinase 1): 7940 nM (active)
Ki [22]: > 1580 nM (inactive)
Ki [23]: 7940 nM (active)
Ki [24]: 1580 nM (active)
Ki [25]: > 6310 nM (inactive)
Ki [26]: > 7940 nM (inactive)
Ki [27]: 316 nM (active)
Ki [28]: > 1580 nM (inactive)
Ki [29]: > 6310 nM (inactive)
Ki [30]: 158 nM (active)
Ki [31]: > 1580 nM (inactive)
Ki [32]: > 2000 nM (inactive)
Ki [33]: > 7940 nM (inactive)
Ki [34]: > 1580 nM (inactive)
Ki [35]: > 1260 nM (inactive)
Ki [36]: > 7940 nM (inactive)
Structure (SMILES): CCn1c(-c2nonc2N)nc2cnc(Oc3cccc(NC(=O)c4ccc(OCCN5CCOCC5)cc4)c3)cc21 [GSK-269962A]
